Test results reported in patent publication US12428455B2, “Dominant negative CEBPB and CEBPD proteins and methods of use for decreasing viability of neoplastic cells” (The Trustees of Columbia University in the City of New York, priority 2018, dated 2025).
No end group written: not given here.

How the values were obtained:
Assay type in all cases: cell-based
IL8 = test: qPCR for IL8 mRNA; settings: 20 μM, 3 days; T98G, MDA-MB-231, MCF7, A375 and HCT116 cells
Experimental: T98G, MDA-MB-231, MCF7, A375, and HCT116 cells were treated with or without 20 μM CP-dn-CEBPB or CP-dn-CEBPD for 3 days and then assessed by qPCR for relative levels of IL6 (FIG. 32A, T98G; FIG. 32B, MDA-MB-231; FIG. 32C, MCF7; FIG. 32D, A375; FIG. 32E, HCT116) and IL8 mRNA (FIG. 32F, T98G; FIG. 32G, MDA-MB-231; FIG. 32H, MCF7; FIG. 32I, A375; FIG. 32J, HCT116).

[1] = test system: MDA-MB-231, MCF7, HCT116 and T98G cancer cell lines; test: PI-Annexin staining and flow cytometry, cancer cell lines; settings: 20 μM, 3 days
Experimental: MDA-MB-231, MCF7, HCT116 and T98G cancer cell lines and HIEC-6 non-cancer cell lines were treated for 3 days with 20 μM CP-dn-CEBPB and CP-dn-CEBPD peptides from stock solutions prepared without additives, followed by PI-Annexin staining and flow cytometry. Numbers in upper and lower quadrants indicate % of cells in early (lower) or late (upper) apoptotic phase.

[2] = test system: HIEC-6 non-cancer human intestinal epithelial cells; test: Cell number after peptide treatment, HIEC-6; settings: 6 days, 0 μM to 50 μM; stock without BSA
Experimental: Replicate cultures of HIEC-6 non-cancer human intestinal epithelial cells, MCF10A non-cancer human breast epithelial cells, or normal human astrocytes were exposed to CP-DN-CEBPB or CP-DN-CEBPD, for 6 days at doses of 0 μM to 50 μM. […] Stock solutions of the peptides were prepared in buffer without added bovine serum albumin (BSA).

T98G cells [3] = test: Combination with paclitaxel, cell number, T98G; settings: 1 nM or 5 nM paclitaxel and 3, 10 or 20 μM peptide, 6 days
Experimental: (§1) Replicate cultures of T98G, MDA-MB 231, and MCF7 cells were treated with 1 nM or 5 nM paclitaxel and 3 μM, 10 μM, or 20 μM CP-dn-CEBPB and CP-dn-CEBPD peptides, maintained for 6 days, and then assessed for cell number. The bar graphs of FIGS. 26A (T98G, CP-dn-CEBPB), 26C (T98G, CP-dn-CEBPBD, 26E (MDA-MB-231, CP-dn-CEBPBD), 26G (MDA-MB-231, CP-dn-CEBPD), 26I (MCF7, CP-dn-CEBPBB), and 26K (MCF7, CP-dn-CEBPBD) show relative cell numbers for each condition as compared to untreated controls. The line graphs of FIGS. 26B (T98G, CP-dn-CEBPB), 26D (T98G, CP-dn-CEBPBD), 26F (MDA-MB-231, CP-dn-CEBPB), 26H (MDA-MB-231, CP-dn-CEBPD), 26J (MCF7, CP-dn-CEBPB), and 26L (MCF7 CP-dn-CEBPBD) show the response as normalized in each case so that 100 represents the relative number of surviving cells that received the indicated level of paclitaxel, but no peptide treatment. Calculated combination indices (CI) were as follows: MCF7: CI=0.41±0.04 for CP-dn-CEBPB; 0.44±0.04 for CP-dn-CEBPD; MDA-MB-231: 0.74±0.03 for CP-dn-CEBPB; 0.74±0.05 for CP-dn-CEBPD; T98G: CI=0.84±0.06 for CP-dn-CEBPB and 0.75±0.07 for CP-dn-CEBPD.

[4] = test system: HCT116 colon cancer cells; test: Cell number after peptide treatment, HCT116; settings: 6 days, 0 μM to 50 μM; stock without BSA
Experimental: (§2) Replicate cultures were exposed to the peptides the for 6 days at the indicated concentrations. Stock solutions of the peptides were prepared in buffer without added bovine serum albumin (BSA).
Replicate cultures of HCT116, MDA-MB 231, MCF7, and T98G cells were exposed to a 50/50 by concentration mixture of CP-DN-CEBPB and CP-DN-CEBPD for 6 days at doses of 0 μM to 50 μM. Stock solutions of the peptides were prepared in buffer without added bovine serum albumin (BSA).
Replicate cultures of T98G, HCT116, MDA-MB 231, and MCF7 cells were exposed to CP-DN-CEBPB, CP-DN-CEBPD, or a CP-DN-CEBPD in which heptad repeat leucine residues were mutated to glycine residues for 6 days at doses of 0 μM to 50 μM. Stock solutions of the peptides were prepared in buffer without added bovine serum albumin (BSA).

A375 melanoma cells = test: Cell number after peptide treatment, A375; settings: 6 days, 0 μM to 50 μM; stock without BSA
Experimental: as §2

MCF7 cells = test: Combination with paclitaxel, cell number, MCF7; settings: 1 nM or 5 nM paclitaxel and 3, 10 or 20 μM peptide, 6 days
Experimental: as §1

[5] = test system: HIEC-6 non-cancer human intestinal epithelial cells; test: Morphology after peptide treatment, HIEC-6; settings: 5 to 6 days, 20 μM or 50; stock without BSA
Experimental: Stock solutions of the peptides were prepared in buffer without added bovine serum albumin (BSA).

T98G cells [6] = test: Combination with gamma radiation, cell number, T98G; settings: 2 Gy or 5 Gy; peptide 0.05, 0.5 or 5 μM one day later, 6 days; CI<1 indicates synergism
Experimental: Replicate cultures of T98G and HCT116 cells were exposed to 2 Gy or 5 Gy of gamma radiation. One day later, the cultures were treated with 0.05 μM, 0.5 μM, or 5 μM CP-dn-CEBPB and CP-dn-CEBPD peptides, maintained for 6 days, and then assessed for cell number. The bar graphs of FIGS. 24A (T98G, CP-dn-CEBPB), 24C (T98G, CP-dn-CEBPBD, 24E (HCT116, CP-dn-CEBPD), and 24G (HCT116, CP-dn-CEBPD) show relative cell numbers for each condition as compared to untreated controls. The line graphs of FIGS. 24B (T98G, CP-dn-CEBPB), 24D (T98G, CP-dn-CEBPBD, 24F (HCT116, CP-dn-CEBPB), and 24H (HCT116, CP-dn-CEBPD) show the response as normalized in each case so that 100 represents the relative number of surviving cells that received the indicated level of radiation treatment, but no peptide treatment. Calculated Combination Indexes (CI) are T98G, CI=0.61±0.05 for CP-dn-CEBPB, 0.68±0.07 for CP-dn-CEBPD; HCT116, 0.89±0.04 for CP-dn-CEBPB, 0.86±0.05 for CP-dn-CEBPD. CI=1 indicates additivity; CI<1 indicates synergism; CI>1 indicates antagonism.

Sequence | relative levels of IL8 mRNA (IL8) | apoptotic death (early or late apoptotic phase) [1] | number of HIEC-6 cells [2] | combination index (CI) with paclitaxel (T98G cells [3]) | growth and survival / numbers of HCT116 cells [4] | growth and survival of A375 cells (A375 melanoma cells) | combination index (CI) with paclitaxel (MCF7 cells) | morphology of HIEC-6 cells [5] | Combination Index (CI) with gamma radiation (T98G cells [6])
RQIKIWFQNRRMKWKKLVELSAENEKLHQRVEQLTRDLAGLRQFFK [CP-DN-CEBPD] | suppress expression | caused apoptotic death in multiple cancer cell lines | did not cause a dose-dependent decrease | 0.75±0.07 | decrease in growth and survival | decrease in growth and survival | 0.44±0.04 | did not affect the morphology | 0.68±0.07
RQIKIWFQNRRMKWKKLETQHKVLELTAENERLQKKVEQLSRELSTLRNLFKQL [CP-DN-CEBPB] | suppress expression | caused apoptotic death in multiple cancer cell lines | did not cause a dose-dependent decrease | 0.84±0.06 | decrease in growth and survival | decrease in growth and survival | 0.41±0.04 | did not affect the morphology | 0.61±0.05
